Data: PubChem BioAssay AID1259407 (Chemical Carcinogenesis Research Information System (CCRIS), 2018)
The source made the active and inactive calls. How the calls were made is not given here.

Test system: CCRIS mutagenicity, Ames/micronucleus/aberration tests
Test: CCRIS mutagenicity studies
[1] = Test System: AMES SALMONELLA TYPHIMURIUM, Strain/Indicator: TA98, Metabolic Activation: NONE, Method: PREINCUBATION
[2] = Test System: AMES SALMONELLA TYPHIMURIUM, Strain/Indicator: TA100, Metabolic Activation: NONE, Method: PREINCUBATION
[3] = Test System: AMES SALMONELLA TYPHIMURIUM, Strain/Indicator: TA1535, Metabolic Activation: NONE, Method: PREINCUBATION
[4] = Test System: AMES SALMONELLA TYPHIMURIUM, Strain/Indicator: TA1537, Metabolic Activation: NONE, Method: PREINCUBATION
[5] = Test System: AMES SALMONELLA TYPHIMURIUM, Strain/Indicator: TA98, Metabolic Activation: RAT, LIVER, S-9, AROCLOR 1254, Method: STANDARD PLATE
[6] = Test System: AMES SALMONELLA TYPHIMURIUM, Strain/Indicator: TA98, Metabolic Activation: NONE, Method: STANDARD PLATE
[7] = Test System: AMES SALMONELLA TYPHIMURIUM, Strain/Indicator: TA100, Metabolic Activation: NONE, Method: STANDARD PLATE
[8] = Test System: AMES SALMONELLA TYPHIMURIUM, Strain/Indicator: TA1535, Metabolic Activation: NONE, Method: STANDARD PLATE
[9] = Test System: AMES SALMONELLA TYPHIMURIUM, Strain/Indicator: TA1537, Metabolic Activation: NONE, Method: STANDARD PLATE

## O=P(O)(O)CCCl
End Point: In vitro chromosomal aberrations, Test System: Chinese hamster ovary (CHO-WBL) cells, Metabolic Activation: None
  mutagenic call: inactive; negative
End Point: In vitro chromosomal aberrations, Test System: Chinese hamster ovary (CHO-WBL) cells, Metabolic Activation: Rat, Liver, S-9, Aroclor 1254
  mutagenic call: inactive; negative
Test System: Chinese hamster ovary cells, Strain/Indicator: CHO-K1-BH4 (HGPRT)/6-Thioguanine, Metabolic Activation: None, Method: Suspension/Plate?
  mutagenic call: inactive; negative (an increase in mutation frequency at 2.5 mg/ml not confirmed in repeat
Test System: Chinese hamster ovary cells, Strain/Indicator: CHO-K1-BH4 (HGPRT)/6-Thioguanine, Metabolic Activation: Rat, Liver, S-9, Aroclor 1254, Method: Suspension/Plate?
  mutagenic call: inactive; negative (an increase in mutation frequency at 2.5 mg/ml not confirmed in repeat

## c1cnc2c(c1)ccc1c3cccnc3ccc12
Test System: AMES SALMONELLA TYPHIMURIUM, Strain/Indicator: TA100, Metabolic Activation: POOLED HUMAN LIVER MICROSOMES, Method: PREINCUBATION
  mutagenic call: active; positive
Test System: AMES SALMONELLA TYPHIMURIUM, Strain/Indicator: TA100, Metabolic Activation: RAT, LIVER, S-9, PHENOBARBITAL AND 5,6-BENZOFLAVONE, Method: PREINCUBATION
  mutagenic call: active; positive
Test System: LACZ TRANSGENIC MOUSE (MUTATM MOUSE), Strain/Indicator: LACZ MUTANT FREQUENCY, Method: LIVER, SPLEEN, LUNG, KIDNEY, BONE MARROW, COLON HARVESTED 7 D AFTER LAST DOSE, DNA ISOLATED
  mutagenic call: active; positive; g:c to t:a transversions in all organs

## [O]=[Ce]=[O]
[1]
  mutagenic call: inactive; negative
Test System: AMES SALMONELLA TYPHIMURIUM, Strain/Indicator: TA98, Metabolic Activation: RAT, LIVER, S-9, KC 500, Method: PREINCUBATION
  mutagenic call: inactive; negative
[2]
  mutagenic call: inactive; negative
Test System: AMES SALMONELLA TYPHIMURIUM, Strain/Indicator: TA100, Metabolic Activation: RAT, LIVER, S-9, KC 500, Method: PREINCUBATION
  mutagenic call: inactive; negative
[3]
  mutagenic call: inactive; negative
Test System: AMES SALMONELLA TYPHIMURIUM, Strain/Indicator: TA1535, Metabolic Activation: RAT, LIVER, S-9, KC 500, Method: PREINCUBATION
  mutagenic call: inactive; negative
[4]
  mutagenic call: inactive; negative
Test System: AMES SALMONELLA TYPHIMURIUM, Strain/Indicator: TA1537, Metabolic Activation: RAT, LIVER, S-9, KC 500, Method: PREINCUBATION
  mutagenic call: inactive; negative
Test System: AMES SALMONELLA TYPHIMURIUM, Strain/Indicator: TA1538, Metabolic Activation: NONE, Method: PREINCUBATION
  mutagenic call: inactive; negative
Test System: AMES SALMONELLA TYPHIMURIUM, Strain/Indicator: TA1538, Metabolic Activation: RAT, LIVER, S-9, KC 500, Method: PREINCUBATION
  mutagenic call: inactive; negative
Test System: E. COLI, Strain/Indicator: WP2 UVRA, Metabolic Activation: NONE, Method: PREINCUBATION
  mutagenic call: inactive; negative
Test System: E. COLI, Strain/Indicator: WP2 UVRA, Metabolic Activation: RAT, LIVER, S-9, KC 500, Method: PREINCUBATION
  mutagenic call: inactive; negative

## O=[N+]([O-])c1ccc2c3c1ccc1cccc(c13)[C@@H](O)[C@@H]2O
[1]
  mutagenic call: active; positive
Test System: AMES SALMONELLA TYPHIMURIUM, Strain/Indicator: TA98, Metabolic Activation: RAT, LIVER, S-9, AROCLOR 1254, Method: PREINCUBATION
  mutagenic call: active; positive
[2]
  mutagenic call: active; positive
Test System: AMES SALMONELLA TYPHIMURIUM, Strain/Indicator: TA100, Metabolic Activation: RAT, LIVER, S-9, AROCLOR 1254, Method: PREINCUBATION
  mutagenic call: active; positive

## CC(=O)Nc1ccc2c(c1OC(C)=O)Cc1ccccc1-2
[5]
  mutagenic call: inactive; negative

## CCC1(CC(=O)O)OCCc2c1[nH]c1c(C)cccc21 (centres undefined)
[6]
  mutagenic call: inactive; negative
Test System: AMES SALMONELLA TYPHIMURIUM, Strain/Indicator: TA98, Metabolic Activation: RAT, LIVER, S-9, Method: STANDARD PLATE
  mutagenic call: inactive; negative
[7]
  mutagenic call: inactive; negative
Test System: AMES SALMONELLA TYPHIMURIUM, Strain/Indicator: TA100, Metabolic Activation: RAT, LIVER, S-9, Method: STANDARD PLATE
  mutagenic call: inactive; negative
[8]
  mutagenic call: inactive; negative
Test System: AMES SALMONELLA TYPHIMURIUM, Strain/Indicator: TA1535, Metabolic Activation: RAT, LIVER, S-9, Method: STANDARD PLATE
  mutagenic call: inactive; negative
[9]
  mutagenic call: inactive; negative
Test System: AMES SALMONELLA TYPHIMURIUM, Strain/Indicator: TA1537, Metabolic Activation: RAT, LIVER, S-9, Method: STANDARD PLATE
  mutagenic call: inactive; negative
Test System: E. COLI, Strain/Indicator: WP2 UVRA, Metabolic Activation: NONE, Method: STANDARD PLATE
  mutagenic call: inactive; negative
Test System: E. COLI, Strain/Indicator: WP2 UVRA, Metabolic Activation: RAT, LIVER, S-9, Method: STANDARD PLATE
  mutagenic call: inactive; negative

## Cc1ccc([N+](=O)[O-])cc1N=[N+]([O-])c1cc([N+](=O)[O-])ccc1C
Test System: AMES SALMONELLA TYPHIMURIUM, Strain/Indicator: TA98, Metabolic Activation: NONE, Method: SUSPENSION/PLATE
  mutagenic call: inactive; negative
Test System: AMES SALMONELLA TYPHIMURIUM, Strain/Indicator: TA98, Metabolic Activation: RAT, LIVER, S-9, PHENOBARBITAL AND 5,6-BENZOFLAVONE, Method: SUSPENSION/PLATE
  mutagenic call: inactive; negative
Test System: AMES SALMONELLA TYPHIMURIUM, Strain/Indicator: TA100, Metabolic Activation: NONE, Method: SUSPENSION/PLATE
  mutagenic call: inactive; negative
Test System: AMES SALMONELLA TYPHIMURIUM, Strain/Indicator: TA100, Metabolic Activation: RAT, LIVER, S-9, PHENOBARBITAL AND 5,6-BENZOFLAVONE, Method: SUSPENSION/PLATE
  mutagenic call: inactive; negative

## OCCCCCCO
[1]
  mutagenic call: inactive; negative
Test System: AMES SALMONELLA TYPHIMURIUM, Strain/Indicator: TA98, Metabolic Activation: RAT LIVER S-9, PHENOBARBITAL AND BETA-NAPHTHOFLAVONE, Method: PREINCUBATION
  mutagenic call: inactive; negative
[2]
  mutagenic call: inactive; negative
Test System: AMES SALMONELLA TYPHIMURIUM, Strain/Indicator: TA100, Metabolic Activation: RAT LIVER S-9, PHENOBARBITAL AND BETA-NAPHTHOFLAVONE, Method: PREINCUBATION
  mutagenic call: inactive; negative
[3]
  mutagenic call: inactive; negative
Test System: AMES SALMONELLA TYPHIMURIUM, Strain/Indicator: TA1535, Metabolic Activation: RAT LIVER S-9, PHENOBARBITAL AND BETA-NAPHTHOFLAVONE, Method: PREINCUBATION
  mutagenic call: inactive; negative
[4]
  mutagenic call: inactive; negative
Test System: AMES SALMONELLA TYPHIMURIUM, Strain/Indicator: TA1537, Metabolic Activation: RAT LIVER S-9, PHENOBARBITAL AND BETA-NAPHTHOFLAVONE, Method: PREINCUBATION
  mutagenic call: inactive; negative
Test System: E.COLI, Strain/Indicator: WP2UVRA/PKM101, Metabolic Activation: NONE, Method: PREINCUBATION
  mutagenic call: inactive; negative
Test System: E.COLI, Strain/Indicator: WP2UVRA/PKM101, Metabolic Activation: RAT LIVER S-9, PHENOBARBITAL AND BETA-NAPHTHOFLAVONE, Method: PREINCUBATION
  mutagenic call: inactive; negative

## O=Nc1nc[nH]c1-c1ccccc1
[7]
  mutagenic call: active; positive

## O=[N+]([O-])C1=Cc2c3ccc4ccccc4c3cc3cccc1c23
[6]
  mutagenic call: active; positive
[5]
  mutagenic call: active; positive
[7]
  mutagenic call: inactive; negative
Test System: AMES SALMONELLA TYPHIMURIUM, Strain/Indicator: TA100, Metabolic Activation: RAT, LIVER, S-9, AROCLOR 1254, Method: STANDARD PLATE
  mutagenic call: inactive; negative
[8]
  mutagenic call: inactive; negative
Test System: AMES SALMONELLA TYPHIMURIUM, Strain/Indicator: TA1535, Metabolic Activation: RAT, LIVER, S-9, AROCLOR 1254, Method: STANDARD PLATE
  mutagenic call: inactive; negative
[9]
  mutagenic call: active; positive
Test System: AMES SALMONELLA TYPHIMURIUM, Strain/Indicator: TA1537, Metabolic Activation: RAT, LIVER, S-9, AROCLOR 1254, Method: STANDARD PLATE
  mutagenic call: active; positive
Test System: AMES SALMONELLA TYPHIMURIUM, Strain/Indicator: TA1538, Metabolic Activation: NONE, Method: STANDARD PLATE
  mutagenic call: active; positive
Test System: AMES SALMONELLA TYPHIMURIUM, Strain/Indicator: TA1538, Metabolic Activation: RAT, LIVER, S-9, AROCLOR 1254, Method: STANDARD PLATE
  mutagenic call: inactive; negative
